Where a SMILES comes first, the peptide text is derived from it. [ ]: non-standard residue; d: D form. pY = N[C@@H](Cc1ccc(OP(=O)(O)O)cc1)C(=O)O
Columns and labels:
[1] = system: epileptic animals (KA-SE); test: Spontaneous recurrent seizures (video-EEG) after kainic acid-induced status epilepticus (KA-SE model of TLE); format: in vivo, mice; settings: 20 mg/kg IP twice daily for two weeks
Excerpt: (§1) Determining whether pY816 may be beneficial in epileptic animals required modification of our study of the kainic acid (KA)-status epilepticus (SE) model. To more closely mimic the clinical scenario in which patients seek medical attention for established TLE, we induced KA-SE and then conducted video-EEG recordings to detect spontaneous recurrent seizures during baseline periods of two to four weeks until they developed TLE prior to treating with pY816 peptide. In contrast to just three days of treatment with pY816 deployed in previous studies, we sought a more prolonged treatment with pY816 for the current experiments, namely two weeks. The intravenous route of administration used for three days in the prior studies was not feasible for two weeks, leading us to ask whether treatment via intraperitoneal route could inhibit activation of PLCγ1. We used the phosphorylation of residue Y783 of PLCγ1 detected on western blot of brain lysates as a surrogate measure of PLCγ1 activation.
Having verified that intraperitoneal administration of pY816 inhibited PLCγ1 activation, we then asked whether treatment with pY816 initiated after onset of epilepsy and continued for two weeks would reduce the severity of epilepsy or even induce a remission. Towards that end, we induced KA-SE but then followed the animals for several weeks until they developed TLE as assessed by detection of SRS in continuous video-EEG recordings. We quantified the number of SRS in each animal by blinded review of video-EEG recordings during three distinct two week epochs (FIG. 8): a) baseline; b) treatment with pY816 (n=9) or Scr control (n=6), 20 mg/kg IP twice daily for two weeks (on Tx); c) following termination of treatment (Post Tx). As noted in FIG. 8, following induction of status epilepticus induced by infusion of kainic acid into amygdala (Gu et al 2015) animals underwent continuous video-EEG recording to detect spontaneous recurrent seizures. Following baseline recording of two weeks, animals were treated with either pY816 or Scr control peptide (20 mg/kg) twice daily for two weeks (Day 15-28). Video-EEG recording continued for two weeks following termination of treatment (Post-treatment).
Results are shown in FIG. 9, where each symbol represents the number of seizures experienced by a given animal during Baseline, Treatment (Tx), or Post-treatment (Post Tx) periods. Horizontal bars designate median. Treatment (Tx) consisted of either pY816 or Scr control given 20 mg/kg twice daily for two weeks. Note that seizure detection was performed by analyses of video-EEG recordings by two blinded investigators.
Antiseizure drugs in current clinical use provide symptomatic relief of seizures in many but not all patients, but seizures typically recur upon cessation of the drug. To verify that similar findings occur in our animal model, we tested the effect of an antiseizure drug in current clinical use in our model (carbamazepine). We infused additional animals with KA and assessed the occurrence of SRS with continuous video-EEG monitoring for several weeks. […] Thus, like TLE in humans, continuous treatment with an antiseizure drug suppresses seizures, yet seizures recur upon discontinuation of treatment.

PLCγ1 = molecular target: T1, PLCγ1 (Mus musculus, UniProt Q62077); test: Inhibition of PLCγ1 activation: western blot of p-PLCγ1 (pY783)/PLCγ1 in hippocampal lysates after intraperitoneal injection; format: in vivo; settings: single dose 20 mg/kg i.p., wild type mice, hippocampal lysates at 3 h; dose dependent (10 or 20 mg/kg)
T1 construct: from tissue; host or cells: hippocampus of adult wild type mice
T1 sequence (Q62077 1-1302): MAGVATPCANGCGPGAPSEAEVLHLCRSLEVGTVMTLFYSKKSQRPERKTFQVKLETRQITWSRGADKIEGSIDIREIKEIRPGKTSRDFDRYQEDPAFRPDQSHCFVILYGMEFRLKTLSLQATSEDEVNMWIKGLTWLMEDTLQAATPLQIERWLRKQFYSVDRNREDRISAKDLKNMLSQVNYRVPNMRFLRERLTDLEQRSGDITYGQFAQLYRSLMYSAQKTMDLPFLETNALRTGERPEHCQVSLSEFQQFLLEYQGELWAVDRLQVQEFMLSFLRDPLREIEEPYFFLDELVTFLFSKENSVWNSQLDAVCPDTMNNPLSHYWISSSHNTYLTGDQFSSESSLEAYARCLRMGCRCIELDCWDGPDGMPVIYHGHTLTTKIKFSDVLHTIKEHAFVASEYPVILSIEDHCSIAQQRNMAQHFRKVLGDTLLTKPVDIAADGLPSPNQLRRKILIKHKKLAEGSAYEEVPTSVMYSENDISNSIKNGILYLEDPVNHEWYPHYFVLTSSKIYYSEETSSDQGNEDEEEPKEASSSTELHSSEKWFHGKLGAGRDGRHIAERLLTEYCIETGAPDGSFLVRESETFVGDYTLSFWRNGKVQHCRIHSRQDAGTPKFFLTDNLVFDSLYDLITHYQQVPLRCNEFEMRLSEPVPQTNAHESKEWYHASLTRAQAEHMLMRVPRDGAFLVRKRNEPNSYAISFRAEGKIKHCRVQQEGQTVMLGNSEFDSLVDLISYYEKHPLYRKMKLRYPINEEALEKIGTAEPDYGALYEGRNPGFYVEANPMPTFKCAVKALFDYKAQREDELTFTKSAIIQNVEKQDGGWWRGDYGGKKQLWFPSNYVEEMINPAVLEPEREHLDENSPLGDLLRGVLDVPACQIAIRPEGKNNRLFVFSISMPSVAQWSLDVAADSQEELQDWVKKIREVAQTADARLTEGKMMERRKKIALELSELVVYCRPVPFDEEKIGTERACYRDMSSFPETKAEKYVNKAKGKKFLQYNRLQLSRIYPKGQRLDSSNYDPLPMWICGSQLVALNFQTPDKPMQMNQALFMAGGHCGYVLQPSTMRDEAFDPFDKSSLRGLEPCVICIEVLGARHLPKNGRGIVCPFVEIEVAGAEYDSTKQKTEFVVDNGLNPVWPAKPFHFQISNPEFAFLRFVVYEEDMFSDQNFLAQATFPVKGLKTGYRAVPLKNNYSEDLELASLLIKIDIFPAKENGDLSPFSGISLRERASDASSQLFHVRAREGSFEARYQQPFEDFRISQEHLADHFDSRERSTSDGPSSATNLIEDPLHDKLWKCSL
Excerpt: as §1
Hippocampal lysates (30-40 μg) were subjected to SDS_PAGE and western blotting. The blots were probed with antibodies specifically recognizing p-PLCγ1 (pY783) (a surrogate for activation of PLCγ1) and PLCγ1.

## CC[C@H](C)[C@H](NC(=O)[C@H](CC(=O)O)NC(=O)[C@H](CC(C)C)NC(=O)[C@H](Cc1ccc(OP(=O)(O)O)cc1)NC(=O)[C@@H](NC(=O)[C@@H]1CCCN1C(=O)[C@H](CO)NC(=O)[C@H](C)NC(=O)[C@H](CCCCN)NC(=O)[C@H](C)NC(=O)[C@H](CC(C)C)NC(=O)[C@H](CC(N)=O)NC(=O)[C@H](CCC(N)=O)NC(=O)[C@H](CC(C)C)NC(=O)[C@H](CCCNC(=N)N)NC(=O)[C@H](CCCNC(=N)N)NC(=O)[C@H](CCCNC(=N)N)NC(=O)[C@H](CCC(N)=O)NC(=O)[C@H](CCCNC(=N)N)NC(=O)[C@H](CCCNC(=N)N)NC(=O)[C@H](CCCCN)NC(=O)[C@H](CCCCN)NC(=O)[C@H](CCCNC(=N)N)NC(=O)CNC(=O)[C@@H](N)Cc1ccc(O)cc1)C(C)C)C(=O)O [pY816] (H-YGRKKRRQRRRLQNLAKASPV[pY]LDI-OH)
[1]
  Overt untoward effects during or following treatment: No overt untoward effects were detected
PLCγ1
  Inhibition of PLCγ1 activation (reduction of p-PLCγ1 (pY783)/PLCγ1 ratio versus Scr): ~60%

— patent US20190269752A1, “Methods for the Prevention or Treatment of Epilepsy” (Duke University, priority 2018, published 2019)
